Legend:
HepG2 cells [1] = experiment: Epo elaboration by HepG2 cells (ELISA); assay type: cell-based, human
Method: HepG2 cells, acquired from American Type Culture Collection (ATCC, Manassas, Va.), were grown in EMEM supplemented with 10% FBS and 1% penicillin/streptomycin solution. Cells were maintained at 37° C. under 5% CO2.
(§1) Quantitation of human S100A9/MRP14 in patient serum and supernatant of the HepG2 cell line was performed using CircuLex S100A9/MRP14 ELISA Kit (MBL, Nagano, Japan). Quantitative measurement of human TNFα and IL-1β from serum patients and supernatant of HepG2 cell line were performed using Human IL-1β ELISA Kit and Human TNFα ELISA Kit (Life Technologies, Carlsbad, Calif., USA). Quantitation of human Epo in patient serum and HepG2 cell line supernatant was performed using Human Erythropoietin ELISA kit (Stemcell Technologies, Vancouver, BC, Canada). All samples were performed in duplicate.

HepG2 cells [2] = experiment: IL10 mRNA qPCR in HepG2 cells; assay type: cell-based, human
Method: RNA was isolated using the RNAeasy Mini Kit (Qiagen, Valencia, Calif., USA) followed by iScript cDNA synthesis (Bio-Rad, Hercules, Calif., USA) and amplification using iQ SYBR Green Supermix (Bio-Rad, Herculed, Calif., USA). The relative level of gene expression for each experimental sample was calculated by the ΔΔCt method. Untreated cells were the experimental control and the housekeeping gene GAPDH was the endogenous control.

NF-κB = experiment: Cytoplasmic and nuclear NF-κB western blotting in HepG2 cells; assay type: cell-based, human; conditions: HepG2, 24 h, 1 μM lenalidomide pre-incubation, then S100A9 or TNFα
Method: After treatment for 24 h, cells were harvested and lysed in 1×RIPA buffer supplemented with protease and phosphatase inhibitors for classical western blotting. For the nuclear extraction, cells were lysed in ice with buffer A, then pelleted. After removed supernatant (cytoplasmic fraction), pellets were lysed in ice with buffer B and pelleted (nuclear fraction) (Nuclear extraction kit, Abcam, Cambridge, USA). Lysates were pelleted and 50 μg of protein was resolved by SDS-PAGE and transferred to PVDF membranes. The membranes were blocked for 30 min in 5% non-fat dry milk solution in PBST (PBS with 0.1% Tween 20) and incubated with the indicated antibodies. Membranes were developed using ECL according to the manufacturer's protocol (GE Healthcare, Little Chalfont, UK). Densitometry analysis was performed using Image J Software.

[3] = tested on: PBMC isolated from non-del(5q) MDS patients; experiment: S100A9 production by PBMC from MDS patients (ELISA); assay type: cell-based, human; conditions: PBMC from MDS patients (n=7), 1 μM lenalidomide, 24 hours
Method: as §1
(§2) Serum samples used for ELISA analysis were collected from 4 centers (Taussig Cancer Institute in Cleveland; AOU Careggi, University of Firenze; Saint Louis hospital in Paris; H. Lee Moffitt Cancer Center in Tampa). Peripheral blood mononuclear cells (PBMC) were collected from patients seen at Moffitt Cancer Center All patients were consented on Institutional Review Boards, or equivalent, approved protocols in hematology clinics at each center, and from the Eastern Cooperative Oncology Group (ECOG) E2905 trial (NCT00843882). All routine clinical and biological data were available.

MDS PBMC = experiment: LPS-induced TNFα production by MDS PBMC; assay type: cell-based, human; conditions: MDS PBMC (n=7), 1 μM lenalidomide 30 minutes prior to LPS (1 μg/ml), 24 h
non-del(5q) MDS patients = experiment: Erythroid response to ESA or lenalidomide treatment by serum TNFα / S100A9 concentration; assay type: in vivo, human
Text: as §2
Data are expressed as mean±standard error for continuous variables, or percentage of total for non-continuous variables. Spearman's correlation, Mann-Withney and Jonckheere-Terpstra tests were used for analysis of continuous variables. Chi-square test was used for analysis of non-continuous variables. Differences between the results of comparative tests were considered significant if the two-sided p-value was less than 0.05. All statistical analyses were performed using SPSS v.22 software (IBM SPSS Statistics).

MDS patients = conditions: cited from earlier work
[4] = lenalidomide or lenalidomide + Epo

SMILES: Nc1cccc2c1CN(C1CCC(=O)NC1=O)C2=O (centres unmarked) [lenalidomide, Lenalidomide]
- effect on IL-1β-directed suppression of Epo elaboration (HepG2 cells [1]; HepG2, 1 μM lenalidomide 30 minutes prior to IL-1β (10 ng/ml)): no effect
- suppression of Epo production by S100A9 after lenalidomide pre-incubation (HepG2 cells [1]; HepG2, 1 μM lenalidomide 30 minutes prior to S100A9 (1 μg/ml)): 65%
- suppression of Epo elaboration by TNFα after lenalidomide pre-incubation (HepG2 cells [1]; HepG2, 1 μM lenalidomide 30 minutes prior to TNFα (10 ng/ml)): 0%
- IL10 gene message following IL-1β treatment (HepG2 cells [2]; HepG2, 1 μM lenalidomide pre-incubation): no modulatory effect
- IL10 mRNA expression compared to S100A9 or TNFα treatment alone (HepG2 cells [2]; HepG2, 24 h, 1 μM lenalidomide 30 minutes prior to S100A9 (1 μg/ml) or TNFα (10 ng/ml)): significantly increased
- NF-κB in nuclear fractions (NF-κB): significant reduction
- S100A9 elaboration [3]: significant reduction
- TNFα production induced by LPS (MDS PBMC): significantly reduced
- erythroid response rate, high (above the median) serum TNFα (non-del(5q) MDS patients; [4]): 14%
- erythroid response rate, low (below the median) serum TNFα (non-del(5q) MDS patients; [4]): 64%
- erythroid response rate, high TNFα and low S100A9 (non-del(5q) MDS patients; lenalidomide treatment): 12%
- erythroid response rate, low TNFα and high S100A9 concentrations (non-del(5q) MDS patients; lenalidomide treatment): 62%
- response in patients with an interstitial deletion of Chromosome 5q (MDS patients; MDS patients with del 5q): high rate of response
- patients without 5q deletions who benefit from therapy (MDS patients; MDS patients without 5q deletions): Approximately 25%

From patent US10697970B2, “S100A9 levels for predicting lenalidomide and erythropoietin responsiveness” (H. LEE MOFFITT CANCER CENTER AND RESEARCH INSTITUTE, INC., priority 2015, dated 2020)
